Results taken from patent publication US20230102520A1, “INHIBITORS OF LOW MOLECULAR WEIGHT PROTEIN TYROSINE PHOSPHATASE (LMPTP) AND USES THEREOF” (Sanford Burnham Prebys Medical Discovery Institute, priority 2019, published 2023).

Biological target: T1, human LMPTP-A (Homo sapiens, UniProt P24666)
T1 sequence (P24666 1-158): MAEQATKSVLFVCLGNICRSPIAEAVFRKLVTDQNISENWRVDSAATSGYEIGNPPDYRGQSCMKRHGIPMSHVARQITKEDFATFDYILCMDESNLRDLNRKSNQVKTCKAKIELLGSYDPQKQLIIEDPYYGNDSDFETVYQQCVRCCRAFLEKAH
Assay: Enzyme Assay of Inhibition of LMPTP-A
Assay type: biochemical
Settings: phosphatase assay, OMFP or pNPP substrate, 50 mM Bis-Tris pH 6.0, 37° C.
Protocol: Example B-1: Enzyme Assay of Inhibition of LMPTP-A
Phosphatase assays were performed in buffer containing 50 mM Bis-Tris, pH 6.0, 1 mM DTT and 0.01% Triton X-100 at 37° C. For assays conducted with 3-O-methylfluorescein phosphate (OMFP) as substrate, fluorescence was monitored continuously at λex=485 and λem=525 nm. For assays conducted with para-nitrophenylphosphate (pNPP) as substrate, the reaction was stopped by addition of 2× reaction volume of 1 M NaOH, and absorbance was measured at 405 nm. IC50 values of compounds disclosed herein were determined from plots of inhibitor concentration versus percentage of enzyme activity. For inhibitor selectivity assays, each PTP was incubated with either 0.4 mM OMFP or 5 mM pNPP in the presence of 40 μM compound or DMSO. […] For the inhibitor reversibility assay, 50 nM human LMPTP-A was pre-incubated with 10 μM of compound disclosed herein or DMSO for 5 min. The enzyme was diluted 100× in phosphatase assay buffer containing 0.4 mM OMFP and fluorescence was measured at the indicated time points.

| IC50 [nM] | Structure (SMILES) |
| --- | --- |
| < 1000 | Nc1ncn(Cc2c(Cl)cncc2Cl)c2nc(-c3ccc4occc4c3)nc1-2 [8-benzo[b]furan-5-yl-3-[(3,5-dichloro(4-pyridyl))methyl]-3-hydropurine-6-ylamine] |
| < 1000 | Nc1ncn(Cc2c(Cl)cncc2Cl)c2nc(-c3ccc4sccc4c3)nc1-2 [8-benzo[b]thiophen-5-yl-3-[(3,5-dichloro(4-pyridyl))methyl]-3-hydropurine-6-ylamine] |
| < 1000 | Nc1ncn(Cc2c(Cl)ccnc2Cl)c2nc(-c3ccc4ncsc4c3)nc1-2 [8-benzothiazol-6-yl-3-[(2,4-dichloro(3-pyridyl))methyl]-3-hydropurine-6-ylamine] |
| 1000 to 20000 | CCN(CC)Cc1nc2c(N)ncn(Cc3c(Cl)cncc3Cl)c-2n1 [({6-amino-3-[(3,5-dichloro(4-pyridyl))methyl](3-hydropurin-8-yl)}methyl)diethylamine] |
